Measured values as given in ChEMBL document CHEMBL4414638, “Structure-Activity Relationship of Peptide-Conjugated Chloramphenicol for Inhibiting Escherichia coli” (J Med Chem, 2019).
In brackets after ≈: the same amount, converted by molar mass. One block for each compound: values may come before it. Activity calls are given as the source filed them. The calls are words filed in the database; no cut-off is given here. *1 amine or outer side, *2 acyl side, *3 side chain or, on linkers, in order; H or OH if unused. Where a SMILES comes first, the peptide text is derived from it. [ ]: non-standard residue; d: D form. The star is where a group is joined. X1 = O=C(CCC(=O)[*:2])OC[C@@H](N[*:1])[C@H](O)c1ccc([N+](=O)[O-])cc1; Dichloroacetyl = O=C(C(Cl)Cl)*

Assays:
[1] = test system: Escherichia coli; assay: Antibacterial activity against Escherichia coli K-12 assessed as reduction in bacterial growth incubated for 16 hrs; format: functional; conditions: K-12, 16 h
[2] = test system: Escherichia coli; assay: Antibacterial activity against Escherichia coli K-12 assessed as reduction in bacterial growth incubated for 16 hrs in presence of porcine liver esterase; format: functional; conditions: K-12, 16 h
[3] = test system: Escherichia coli; assay: Antibacterial activity against Escherichia coli K-12 assessed as reduction in bacterial growth incubated for 16 hrs in absence of porcine liver esterase; format: functional; conditions: K-12, 16 h
[4] = Drug metabolism in Escherichia coli K-12 lysates assessed as esterase-mediated drug hydrolysis at 200 uM incubated up to 24 hrs by HPLC analysis; format: ADME, subcellular, Lysate; conditions: escherichia coli k-12, isolated protein
[5] = Drug metabolism in human HepG2 cells lysates assessed as esterase-mediated drug hydrolysis at 200 uM incubated up to 24 hrs by HPLC analysis; format: ADME, subcellular, Lysate; conditions: hepg2, 24 h
[6] = Drug metabolism in Escherichia coli K-12 lysates assessed as esterase-mediated drug hydrolysis by measuring apparent first-order rate constant at 200 uM incubated up to 24 hrs by HPLC analysis; format: ADME, subcellular, Lysate; conditions: escherichia coli k-12, isolated protein
[7] = test system: Escherichia coli; assay: Antibacterial activity against ydgR gene deficient Escherichia coli assessed as reduction in bacterial growth at 0.1 to 100 uM incubated for 16 hrs; format: functional, organism-based
[8] = test system: Escherichia coli; assay: Antibacterial activity against fepA gene deficient Escherichia coli assessed as reduction in bacterial growth at 0.1 to 100 uM incubated for 16 hrs; format: functional, organism-based
[9] = test system: Escherichia coli; assay: Antibacterial activity against ompF gene deficient Escherichia coli assessed as reduction in bacterial growth at 0.1 to 100 uM incubated for 16 hrs; format: functional, organism-based
[10] = test system: Escherichia coli; assay: Antibacterial activity against acrA gene deficient Escherichia coli assessed as reduction in bacterial cell viability at 0.1 to 100 uM incubated for 16 hrs relative to control; format: functional
[11] = test system: Escherichia coli; assay: Antibacterial activity against bioH gene deficient Escherichia coli assessed as reduction in bacterial growth at 0.1 to 100 uM incubated for 16 hrs; format: functional, organism-based
[12] = test system: Escherichia coli; assay: Antibacterial activity against yjfP gene deficient Escherichia coli assessed as reduction in bacterial growth at 0.1 to 100 uM incubated for 16 hrs; format: functional, organism-based
[13] = test system: Escherichia coli; assay: Antibacterial activity against frsA gene deficient Escherichia coli assessed as reduction in bacterial growth at 0.1 to 100 uM incubated for 16 hrs; format: functional, organism-based
[14] = test system: Escherichia coli; assay: Antibacterial activity against ybfF gene deficient Escherichia coli assessed as reduction in bacterial growth at 0.1 to 100 uM incubated for 16 hrs; format: functional, organism-based
[15] = test system: Escherichia coli; assay: Antibacterial activity against yfbB gene deficient Escherichia coli assessed as reduction in bacterial growth at 0.1 to 100 uM incubated for 16 hrs; format: functional, organism-based
[16] = test system: Escherichia coli; assay: Antibacterial activity against ypfH gene deficient Escherichia coli assessed as reduction in bacterial growth at 0.1 to 100 uM incubated for 16 hrs; format: functional, organism-based
[17] = test system: Escherichia coli; assay: Antibacterial activity against yeiG gene deficient Escherichia coli assessed as reduction in bacterial growth at 0.1 to 100 uM incubated for 16 hrs; format: functional, organism-based
[18] = test system: Escherichia coli; assay: Antibacterial activity against yqiA gene deficient Escherichia coli assessed as reduction in bacterial growth at 0.1 to 100 uM incubated for 16 hrs; format: functional, organism-based
[19] = Drug metabolism in human serum assessed as formation of chloramphenicol at 200 uM at 37 degC after 24 hrs by LC-MS analysis relative to control
[20] = Cytotoxicity in human HS5 cells assessed as reduction in cell viability at 20 uM to 2 mM incubated up to […]rs relative to chloramphenicol; format: cell-based
[21] = test system: HEK293; assay: Cytotoxicity in human HEK293 cells assessed as reduction in cell viability at 20 uM […] relative to chloramphenicol; format: cell-based; conditions: hek293, 20 µM

- MIC [1]: 200 µM (≈ 195 µg/mL)
Compound: NCCCC[C@@H](NC(=O)[C@@H](CCCCN)NC(=O)[C@@H](Cc1ccccc1)NC(=O)[C@@H](Cc1ccccc1)NC(=O)CCC(=O)OC[C@@H](NC(=O)C(Cl)Cl)[C@H](O)c1ccc([N+](=O)[O-])cc1)C(=O)O

Compound: NCCCC[C@H](NC(=O)[C@H](CCCCN)NC(=O)CCC(=O)OC[C@@H](NC(=O)C(Cl)Cl)[C@H](O)c1ccc([N+](=O)[O-])cc1)C(=O)O
- MIC [1]: 200 µM (≈ 136 µg/mL)
- MIC [2]: 200 µM
- MIC [3]: 200 µM (≈ 136 µg/mL)
- Drug metabolism [4]: Metabolite_Detected
- Drug metabolism [5]: Metabolite_Detected
- K [6]: 0.31 h⁻¹
- Activity [7]: Active
- Activity [8]: Active
- Activity [9]: Active
- Activity [10]: 50%
- Activity [11]: inactive
- Activity [12]: inactive
- Activity [13]: inactive
- Activity [14]: inactive
- Activity [15]: inactive
- Activity [16]: inactive
- Activity [17]: inactive
- Activity [18]: inactive
- Drug metabolism [19]: Metabolite_Detected

- MIC [1]: 80 µM (≈ 45.2 µg/mL)
Compound: C[C@@H](NC(=O)[C@@H](C)NC(=O)CCC(=O)OC[C@@H](NC(=O)C(Cl)Cl)[C@H](O)c1ccc([N+](=O)[O-])cc1)C(=O)O

- MIC [1]: 20 µM (≈ 13.7 µg/mL)
Compound: O=C(CCC(=O)OC[C@@H](NC(=O)C(Cl)Cl)[C@H](O)c1ccc([N+](=O)[O-])cc1)NCC(=O)NCC(=O)N[C@@H](Cc1ccccc1)C(=O)O
- Activity [20]: Non-Toxic
- Activity [21]: Toxic

- MIC [1]: 100 µM (≈ 54.6 µg/mL)
Compound: O=C(CCC(=O)OC[C@@H](NC(=O)C(Cl)Cl)[C@H](O)c1ccc([N+](=O)[O-])cc1)NCCOP(=O)(O)O

- MIC [1]: > 200 µM
Compound: O=C(O)CC[C@@H](NC(=O)[C@@H](CCC(=O)O)NC(=O)CCC(=O)OC[C@@H](NC(=O)C(Cl)Cl)[C@H](O)c1ccc([N+](=O)[O-])cc1)C(=O)O

- MIC [1]: 200 µM (≈ 206 µg/mL)
Compound: N=C(N)NCCC[C@@H](NC(=O)[C@@H](CCCNC(=N)N)NC(=O)[C@@H](Cc1ccccc1)NC(=O)[C@@H](Cc1ccccc1)NC(=O)CCC(=O)OC[C@@H](NC(=O)C(Cl)Cl)[C@H](O)c1ccc([N+](=O)[O-])cc1)C(=O)O

Compound: O=C(O)CNC(=O)[C@@H](CO)NC(=O)CCC(=O)OC[C@@H](NC(=O)C(Cl)Cl)[C@H](O)c1ccc([N+](=O)[O-])cc1
- MIC [1]: 40 µM (≈ 22.7 µg/mL)
- MIC [2]: 40 µM
- MIC [3]: 40 µM (≈ 22.7 µg/mL)
- Drug metabolism [4]: Metabolite_Detected
- Drug metabolism [5]: Metabolite_Detected
- K [6]: 1.267 h⁻¹
- Activity [7]: Active
- Activity [8]: Active
- Activity [9]: Active
- Activity [10]: 40%
- Activity [11]: inactive
- Activity [12]: inactive
- Activity [13]: inactive
- Activity [14]: inactive
- Activity [15]: inactive
- Activity [16]: inactive
- Activity [17]: inactive
- Activity [18]: inactive
- Drug metabolism [19]: Metabolite_Detected

- MIC [1]: 20 µM (≈ 11.9 µg/mL)
Compound: CC(C)C[C@@H](NC(=O)CNC(=O)CCC(=O)OC[C@@H](NC(=O)C(Cl)Cl)[C@H](O)c1ccc([N+](=O)[O-])cc1)C(=O)O
- Activity [20]: Non-Toxic
- Activity [21]: Toxic

- MIC [1]: 80 µM (≈ 50.9 µg/mL)
Compound: C[C@@H](NC(=O)[C@@H](C)NC(=O)[C@@H](C)NC(=O)CCC(=O)OC[C@@H](NC(=O)C(Cl)Cl)[C@H](O)c1ccc([N+](=O)[O-])cc1)C(=O)O

- MIC [1]: 80 µM (≈ 54.8 µg/mL)
Compound: O=C(O)CNC(=O)CNC(=O)[C@H](Cc1ccccc1)NC(=O)CCC(=O)OC[C@@H](NC(=O)C(Cl)Cl)[C@H](O)c1ccc([N+](=O)[O-])cc1

- MIC [1]: 20 µM (≈ 11.9 µg/mL)
Compound: O=C(O)C[C@H](NC(=O)CNC(=O)CCC(=O)OC[C@@H](NC(=O)C(Cl)Cl)[C@H](O)c1ccc([N+](=O)[O-])cc1)C(=O)O
- Activity [20]: Non-Toxic
- Activity [21]: Toxic

Compound: O=C(CCC(=O)OC[C@@H](NC(=O)C(Cl)Cl)[C@H](O)c1ccc([N+](=O)[O-])cc1)NCC(=O)NCC(=O)N[C@@H](Cc1ccccc1)C(=O)N[C@@H](Cc1ccccc1)C(=O)O
- MIC [1]: 20 µM (≈ 16.6 µg/mL)
- Activity [20]: Non-Toxic
- Activity [21]: Toxic

- MIC [1]: 40 µM (≈ 28.3 µg/mL)
Compound: O=C(O)CNC(=O)CNC(=O)CNC(=O)CNC(=O)CNC(=O)CCC(=O)OC[C@@H](NC(=O)C(Cl)Cl)[C@H](O)c1ccc([N+](=O)[O-])cc1 (Dichloroacetyl-[X1]GGGGG-OH)

- MIC [1]: 20 µM (≈ 13.7 µg/mL)
Compound: O=C(O)CNC(=O)[C@H](Cc1ccccc1)NC(=O)CNC(=O)CCC(=O)OC[C@@H](NC(=O)C(Cl)Cl)[C@H](O)c1ccc([N+](=O)[O-])cc1
- Activity [20]: Non-Toxic
- Activity [21]: Toxic

- MIC [1]: 100 µM (≈ 71.8 µg/mL)
Compound: O=C(CCC(=O)OC[C@@H](NC(=O)C(Cl)Cl)[C@H](O)c1ccc([N+](=O)[O-])cc1)N[C@H](Cc1ccccc1)C(=O)N[C@H](Cc1ccccc1)C(=O)O
